Data reported in PubChem BioAssay AID2060602 (Molecular Pharmacology Branch, DTP, NCI, 2025).

System: 648629-189-R-J1-PDC complex spheroids viability
Experiment: Anticancer human tumor 648629-189-R-J1-PDC patient-derived bladder carcinoma cell line growth inhibition [CLK]
Details: for IC50: curve of first compound; for viability, T/C: stronger effect = lower value
Summary of the method: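 Multi-cell-type spheroids combined patient-derived tumor cells with HUVEC endothelial cells and human mesenchymal stem cells. Paired agents were dosed in half-log steps down from about clinical Cmax, or from 10 microM where Cmax was unknown.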

[1] = second compound 0.0316 µM, first compound 0.00949 µM
[2] = second compound 0.0316 µM, first compound 0.03 µM
[3] = second compound 0.0316 µM, first compound 0.0949 µM
[4] = second compound 0.0316 µM, first compound 0.3 µM
[5] = second compound 0.1 µM, first compound 0.00949 µM
[6] = second compound 0.1 µM, first compound 0.03 µM
[7] = second compound 0.1 µM, first compound 0.0949 µM
[8] = second compound 0.1 µM, first compound 0.3 µM
[9] = second compound 0.316 µM, first compound 0.00949 µM
[10] = second compound 0.316 µM, first compound 0.03 µM
[11] = second compound 0.316 µM, first compound 0.0949 µM
[12] = second compound 0.316 µM, first compound 0.3 µM
[13] = second compound 1 µM, first compound 0.00949 µM
[14] = second compound 1 µM, first compound 0.03 µM
[15] = second compound 1 µM, first compound 0.0949 µM
[16] = second compound 1 µM, first compound 0.3 µM
[17] = second compound 3.16 µM, first compound 0.00949 µM
[18] = second compound 3.16 µM, first compound 0.03 µM
[19] = second compound 3.16 µM, first compound 0.0949 µM
[20] = second compound 3.16 µM, first compound 0.3 µM
[21] = second compound 10 µM, first compound 0.00949 µM
[22] = second compound 10 µM, first compound 0.03 µM
[23] = second compound 10 µM, first compound 0.0949 µM
[24] = second compound 10 µM, first compound 0.3 µM
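For viability, T/C in this document: drug exposure lasted seven days before viability readout; 100% = DMSO vehicle control wells.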

For `CC(C)CC(NC(=O)C(Cc1ccccc1)NC(=O)c1cnccn1)B(O)O` (stereo unspecified) + CN1CCN(c2cc(C(=O)Nc3cc4cc(-c5cnn(C)c5)ccc4cn3)ccn2)CC1, the IC50 (second compound 0.0316 µM) was 4.64 nM, the IC50 (second compound 0.1 µM) was 4.8 nM and the IC50 (second compound 0.316 µM) was under 0.949 nM. For the same compound, the IC50 (second compound 1 µM) was under 0.949 nM, the IC50 (second compound 3.16 µM) was under 0.949 nM and the IC50 (second compound 10 µM) was under 0.949 nM. The viability, T/C (second compound 0.0316 µM, first compound 0.000949 µM) was 116%, the viability, T/C (second compound 0.0316 µM, first compound 0.003 µM) was 79.8% and the viability, T/C [1] was 0.91%. The viability, T/C [2] was 0.37%, the viability, T/C [3] was 0.28% and the viability, T/C [4] was 0.14%. For the same compound, the viability, T/C (second compound 0.1 µM, first compound 0.000949 µM) was 94.9%, the viability, T/C (second compound 0.1 µM, first compound 0.003 µM) was 82.8% and the viability, T/C [5] was 2.63%. The viability, T/C [6] was 0.49%, the viability, T/C [7] was 0.17% and the viability, T/C [8] was 0.16%. It also gave a viability, T/C (second compound 0.316 µM, first compound 0.000949 µM) of 41.5%, a viability, T/C (second compound 0.316 µM, first compound 0.003 µM) of 18.5% and a viability, T/C [9] of 0.32%. For the same compound, the viability, T/C [10] was 0.16%, the viability, T/C [11] was 0.15% and the viability, T/C [12] was 0.14%. For the same compound, the viability, T/C (second compound 1 µM, first compound 0.000949 µM) was 0.66%, the viability, T/C (second compound 1 µM, first compound 0.003 µM) was 0.93% and the viability, T/C [13] was 0.16%. It also gave a viability, T/C [14] of 0.1%, a viability, T/C [15] of 0.17% and a viability, T/C [16] of 0.8%. The viability, T/C (second compound 3.16 µM, first compound 0.000949 µM) was 0.08%, the viability, T/C (second compound 3.16 µM, first compound 0.003 µM) was 2.07% and the viability, T/C [17] was 0.1%. The viability, T/C [18] was 0.08%, the viability, T/C [19] was 1.36% and the viability, T/C [20] was 1.67%. For the same compound, the viability, T/C (second compound 10 µM, first compound 0.000949 µM) was 0.06%, the viability, T/C (second compound 10 µM, first compound 0.003 µM) was 1.03% and the viability, T/C [21] was 0.12%. For the same compound, the viability, T/C [22] was 0.11%, the viability, T/C [23] was 2.27% and the viability, T/C [24] was 1.33%.
In the case of `CC(CO)NC(=O)c1cc(-c2ccc(Cl)cc2)nn(-c2cnn(C)c2)c1=O` (stereo unspecified) + CN1CCN(c2cc(C(=O)Nc3cc4cc(-c5cnn(C)c5)ccc4cn3)ccn2)CC1, the IC50 (second compound 0.0316 µM) is reported as over 10000 nM, the IC50 (second compound 0.1 µM) is reported as over 10000 nM and the IC50 (second compound 0.316 µM) is reported as under 31.6 nM. The IC50 (second compound 1 µM) was under 31.6 nM, the IC50 (second compound 3.16 µM) was under 31.6 nM and the IC50 (second compound 10 µM) was under 31.6 nM. It also gave a viability, T/C (second compound 0.0316 µM, first compound 0.0316 µM) of 109%, a viability, T/C (second compound 0.0316 µM, first compound 0.1 µM) of 109% and a viability, T/C (second compound 0.0316 µM, first compound 0.316 µM) of 99.3%. For the same compound, the viability, T/C (second compound 0.0316 µM, first compound 1 µM) was 125%, the viability, T/C (second compound 0.0316 µM, first compound 3.16 µM) was 109% and the viability, T/C (second compound 0.0316 µM, first compound 10 µM) was 85.6%. It also gave a viability, T/C (second compound 0.1 µM, first compound 0.0316 µM) of 103%, a viability, T/C (second compound 0.1 µM, first compound 0.1 µM) of 100% and a viability, T/C (second compound 0.1 µM, first compound 0.316 µM) of 94.5%. The viability, T/C (second compound 0.1 µM, first compound 1 µM) was 114%, the viability, T/C (second compound 0.1 µM, first compound 3.16 µM) was 105% and the viability, T/C (second compound 0.1 µM, first compound 10 µM) was 84.7%. The viability, T/C (second compound 0.316 µM, first compound 0.0316 µM) was 38.1%, the viability, T/C (second compound 0.316 µM, first compound 0.1 µM) was 51.2% and the viability, T/C (second compound 0.316 µM, first compound 0.316 µM) was 44.7%. It also gave a viability, T/C (second compound 0.316 µM, first compound 1 µM) of 56.9%, a viability, T/C (second compound 0.316 µM, first compound 3.16 µM) of 47.2% and a viability, T/C (second compound 0.316 µM, first compound 10 µM) of 43.6%. It also gave a viability, T/C (second compound 1 µM, first compound 0.0316 µM) of 0.43%, a viability, T/C (second compound 1 µM, first compound 0.1 µM) of 0.37% and a viability, T/C (second compound 1 µM, first compound 0.316 µM) of 0.32%. For the same compound, the viability, T/C (second compound 1 µM, first compound 1 µM) was 0.48%, the viability, T/C (second compound 1 µM, first compound 3.16 µM) was 0.38% and the viability, T/C (second compound 1 µM, first compound 10 µM) was 0.26%. The viability, T/C (second compound 3.16 µM, first compound 0.0316 µM) was 0.14%, the viability, T/C (second compound 3.16 µM, first compound 0.1 µM) was 0.17% and the viability, T/C (second compound 3.16 µM, first compound 0.316 µM) was 0.16%. For the same compound, the viability, T/C (second compound 3.16 µM, first compound 1 µM) was 0.18%, the viability, T/C (second compound 3.16 µM, first compound 3.16 µM) was 0.17% and the viability, T/C (second compound 3.16 µM, first compound 10 µM) was 0.18%. It also gave a viability, T/C (second compound 10 µM, first compound 0.0316 µM) of 0.22%, a viability, T/C (second compound 10 µM, first compound 0.1 µM) of 0.25% and a viability, T/C (second compound 10 µM, first compound 0.316 µM) of 0.22%. It also gave a viability, T/C (second compound 10 µM, first compound 1 µM) of 0.23%, a viability, T/C (second compound 10 µM, first compound 3.16 µM) of 0.24% and a viability, T/C (second compound 10 µM, first compound 10 µM) of 0.22%.
In the case of `NC(=O)C(=Cn1cnc(-c2cc(C(F)(F)F)cc(C(F)(F)F)c2)n1)c1cncnc1` + CN1CCN(c2cc(C(=O)Nc3cc4cc(-c5cnn(C)c5)ccc4cn3)ccn2)CC1, the IC50 (second compound 0.0316 µM) is reported as 54.4 nM, the IC50 (second compound 0.1 µM) is reported as 53.3 nM and the IC50 (second compound 0.316 µM) is reported as under 9.49 nM. For the same compound, the IC50 (second compound 1 µM) was under 9.49 nM, the IC50 (second compound 3.16 µM) was under 9.49 nM and the IC50 (second compound 10 µM) was under 9.49 nM. The viability, T/C [1] was 113%, the viability, T/C [2] was 88.2% and the viability, T/C [3] was 14.3%. It also gave a viability, T/C [4] of 2.66%, a viability, T/C (second compound 0.0316 µM, first compound 0.949 µM) of 1.8% and a viability, T/C (second compound 0.0316 µM, first compound 3 µM) of 1.61%. For the same compound, the viability, T/C [5] was 93.7%, the viability, T/C [6] was 87.7% and the viability, T/C [7] was 12.2%. It also gave a viability, T/C [8] of 2.12%, a viability, T/C (second compound 0.1 µM, first compound 0.949 µM) of 0.68% and a viability, T/C (second compound 0.1 µM, first compound 3 µM) of 0.92%. It also gave a viability, T/C [9] of 14.6%, a viability, T/C [10] of 11.7% and a viability, T/C [11] of 3%. It also gave a viability, T/C [12] of 0.3%, a viability, T/C (second compound 0.316 µM, first compound 0.949 µM) of 0.08% and a viability, T/C (second compound 0.316 µM, first compound 3 µM) of 1.52%. For the same compound, the viability, T/C [13] was 0.1%, the viability, T/C [14] was 0.12% and the viability, T/C [15] was 0.12%. For the same compound, the viability, T/C [16] was 0.07%, the viability, T/C (second compound 1 µM, first compound 0.949 µM) was 0.06% and the viability, T/C (second compound 1 µM, first compound 3 µM) was 0.63%. For the same compound, the viability, T/C [17] was 0.07%, the viability, T/C [18] was 0.1% and the viability, T/C [19] was 0.12%. For the same compound, the viability, T/C [20] was 0.12%, the viability, T/C (second compound 3.16 µM, first compound 0.949 µM) was 0.79% and the viability, T/C (second compound 3.16 µM, first compound 3 µM) was 0.75%. It also gave a viability, T/C [21] of 0.05%, a viability, T/C [22] of 0.08% and a viability, T/C [23] of 0.17%. It also gave a viability, T/C [24] of 0.2%, a viability, T/C (second compound 10 µM, first compound 0.949 µM) of 1.48% and a viability, T/C (second compound 10 µM, first compound 3 µM) of 0.19%.
